{
  "source": "patent US8137977B2",
  "about": "“Lipidomic approaches to determining drug response phenotypes in cardiovascular disease” (Children's Hospital & Research Center at Oakland, priority 2007, dated 2012)",
  "assay": "Lipid profile changes (lipid classes and fatty acid composition) following simvastatin treatment, high vs low responders, PARC study",
  "type": "in vivo, human",
  "conditions": "40 mg, 6 weeks vs baseline, high minus low, ANOVA",
  "experimental": "We evaluated lipid profiles of 48 subjects selected from the Pharmacogenetics and Risk of Cardiovascular Disease (PARC) study. Subjects were selected from the larger study population of 944 participants (335 African-Americans and 609 whites), with a baseline total serum cholesterol level of 160 to 400 mg/dl. Participants were followed for a total of 6 weeks on simvastatin therapy (40 mg at bedtime). Twenty-four subjects drawn from the top 10% of responders and 24 age-, gender-, and race-matched subjects from the bottom 10% of responders. Response was defined as percent change in LDL cholesterol from baseline to end of treatment. Samples used in this study were collected at baseline and at 6 weeks of therapy.\nData Reporting. Lipids measured included, butyrobetaine, L-carnitine, cholesterol, cholesterol esters (CE), diglycerides (DG), free cholesterol (FC), free fatty acids (FA), lysophosphatidylcholine (LY), phosphatidylcholine (PC), phosphatidylethanolamine (PE) and triglycerides (TG). For CE, DG, FA, LY, PC, PE and TG lipid classes the following fatty acid components were quantified as a proportion of total fatty acids within the lipid class: 14:0, 15:0, 16:0, 18:0, 20:0, 22:0, 24:0, 14:1n5, 16:1n7, 18:1n7, 18:1n9, 20:1n9, 20:3n9, 22:1n9, 24:1n9, 18:2n6, 18:3n6, 20:2n6, 20:3n6, 20:4n6, 22:2n6, 22:4n6, 22:5n6, 18:3n3, 18:4n3, 20:3n3, 20:4n3, 20:5n3, 22:5n3, 22:6n3, 24:6n3, plasmalogen derivatives of 16:0, 18:0, 18:1n7 and 18:1n9, t16:1n7 t18:1n9 t18:2n6. The term “LC” indicates the value shown is the total concentration of the lipid class expressed as nMoles per gram of serum or plasma. Thus, the abbreviation PC18:2n6 indicates the percentage of plasma or serum phosphatidylcholine comprised of linoleic acid (18:2n6), and the term TGLC indicates the absolute amount of triglyceride present in plasma or serum.\nStatistical Methods. Before undertaking analysis, the data was cleaned by outlier removal and removal of uninformative metabolites. Outliers were identifies as those observation more than three standard deviations from the mean. Metabolites were determined to be uninformative if over ⅔rds of the observations were below the limit of detection and the pattern of observations falling below this limit was not related to the outcome.\nResults of t-tests were used in order to reduce the number of metabolites being modeled.\nA simple one-way ANOVA was used to evaluate the difference in lipid changes between high and low responders. From this analysis, contrasts were calculated for the comparison of low to high responders. In addition, an ANCOVA model was used to evaluate the difference in response adjusting for baseline concentrations of the metabolite and the time the samples were run. The outcome was change from baseline to post-treatment, baseline concentration was the covariate, response (high=1, low=0) and group (first=0, second=1) were included as factors, and an interaction term between baseline and response was included.\nThe column labeled “estimate” is the difference between the change from pre to post in high and low responders (high minus low). The standard error, t-statistic, p-value, and 95% confidence bounds of this estimate are also included (Lower.CI and Upper.CI).",
  "key": {"[1]": {"conditions": "proportion of fatty acids in lysophosphatidylcholine"}, "[2]": {"conditions": "proportion of fatty acids in phosphatidylcholine"}, "[3]": {"conditions": "proportion of fatty acids in phosphatidylethanolamine"}, "[4]": {"conditions": "proportion of fatty acids in triglyceride"}},
  "data": [
    {"compound": "CCC(C)(C)C(=O)O[C@H]1C[C@@H](C)C=C2C=C[C@H](C)[C@H](CC[C@@H]3C[C@@H](O)CC(=O)O3)[C@H]21", "note": "[simvastatin]", "values": [
      {"measurement": "Estimate, difference between change in high and low responders: DGLC (total diglyceride)", "value": "2.4502 nMoles per gram of serum or plasma"},
      {"measurement": "Estimate, difference between change in high and low responders: LY14.1n5", "setting": "[1]", "value": 0.0135, "unit": "percentage"},
      {"measurement": "Estimate, difference between change in high and low responders: LY16.0", "setting": "[1]", "value": "−1.1505", "unit": "percentage"},
      {"measurement": "Estimate, difference between change in high and low responders: LY18.0", "setting": "[1]", "value": "−1.1443", "unit": "percentage"},
      {"measurement": "Estimate, difference between change in high and low responders: LY18.1n9", "setting": "[1]", "value": 0.3099, "unit": "percentage"},
      {"measurement": "Estimate, difference between change in high and low responders: LY18.3n6", "setting": "[1]", "value": 0.0774, "unit": "percentage"},
      {"measurement": "Estimate, difference between change in high and low responders: LY20.4n3", "setting": "[1]", "value": "−0.019", "unit": "percentage"},
      {"measurement": "Estimate, difference between change in high and low responders: LY20.4n6", "setting": "[1]", "value": 0.1269, "unit": "percentage"},
      {"measurement": "Estimate, difference between change in high and low responders: LY20.5n3", "setting": "[1]", "value": 0.0994, "unit": "percentage"},
      {"measurement": "Estimate, difference between change in high and low responders: PC18.2n6", "setting": "[2]", "value": "−1.5254", "unit": "percentage"},
      {"measurement": "Estimate, difference between change in high and low responders: PC18.3n3", "setting": "[2]", "value": "−0.0498", "unit": "percentage"},
      {"measurement": "Estimate, difference between change in high and low responders: PC20.3n9", "setting": "[2]", "value": "−0.0509", "unit": "percentage"},
      {"measurement": "Estimate, difference between change in high and low responders: PC20.4n6", "setting": "[2]", "value": 1.1779, "unit": "percentage"},
      {"measurement": "Estimate, difference between change in high and low responders: PC22.6n3", "setting": "[2]", "value": 0.4153, "unit": "percentage"},
      {"measurement": "Estimate, difference between change in high and low responders: PE14.1n5", "setting": "[3]", "value": 0.0551, "unit": "percentage"},
      {"measurement": "Estimate, difference between change in high and low responders: PE18.0", "setting": "[3]", "value": "−2.0267", "unit": "percentage"},
      {"measurement": "Estimate, difference between change in high and low responders: PE18.2n6", "setting": "[3]", "value": "−1.036", "unit": "percentage"},
      {"measurement": "Estimate, difference between change in high and low responders: PE20.0", "setting": "[3]", "value": 0.0189, "unit": "percentage"},
      {"measurement": "Estimate, difference between change in high and low responders: PE20.3n6", "setting": "[3]", "value": "−0.4196", "unit": "percentage"},
      {"measurement": "Estimate, difference between change in high and low responders: PE20.4n3", "setting": "[3]", "value": "−0.0102", "unit": "percentage"},
      {"measurement": "Estimate, difference between change in high and low responders: PE22.5n3", "setting": "[3]", "value": "−0.1266", "unit": "percentage"},
      {"measurement": "Estimate, difference between change in high and low responders: TG18.3n3", "setting": "[4]", "value": "−0.0787", "unit": "percentage"},
      {"measurement": "Estimate, difference between change in high and low responders: TG18.3n6", "setting": "[4]", "value": 0.1008, "unit": "percentage"},
      {"measurement": "Estimate, difference between change in high and low responders: TG18.4n3", "setting": "[4]", "value": 0.0378, "unit": "percentage"},
      {"measurement": "Estimate, difference between change in high and low responders: TG20.3n9", "setting": "[4]", "value": "−0.0052", "unit": "percentage"},
      {"measurement": "Estimate, difference between change in high and low responders: TG20.4n3", "setting": "[4]", "value": "−0.0056", "unit": "percentage"},
      {"measurement": "Estimate, difference between change in high and low responders: TG20.4n6", "setting": "[4]", "value": 0.1005, "unit": "percentage"},
      {"measurement": "Estimate, difference between change in high and low responders: TG22.0", "setting": "[4]", "value": 0.0184, "unit": "percentage"},
      {"measurement": "Estimate, difference between change in high and low responders: TG22.4n6", "setting": "[4]", "value": "−0.0138", "unit": "percentage"},
      {"measurement": "Estimate, difference between change in high and low responders: TG22.5n6", "setting": "[4]", "value": "−0.0165", "unit": "percentage"},
      {"measurement": "Estimate, difference between change in high and low responders: FA20.0", "setting": "proportion of free fatty acids", "value": 0.0159, "unit": "percentage"},
      {"measurement": "Estimate, difference between change in high and low responders: FA20.1n9", "setting": "proportion of free fatty acids", "value": 0.0823, "unit": "percentage"},
      {"measurement": "Estimate, difference between change in high and low responders: FA22.1n9", "setting": "proportion of free fatty acids", "value": "−0.0615", "unit": "percentage"},
      {"measurement": "Estimate, difference between change in high and low responders: FA22.2n6", "setting": "proportion of free fatty acids", "value": "−0.0088", "unit": "percentage"}
    ]}
  ]
}
